{"source": "patent US10322188B2", "about": "“Cell-penetrating drug carrier and the application thereof” (National Central University, priority 2014, dated 2019)", "key": {"HepG2 cells [1]": {"tested_on": "HepG2 cells", "assay": "Cell viability of HepG2 cells incubated with peptide, DOX or a mixture for 1 hour and 6 hours", "assay_type": "cell-based", "settings": "25 µM peptide, 25 µM DOX or mixed solution of both; incubating for 1 hour and 6 hours; FIG. 1A", "method": "In this example, HepG2 cells are individually incubated in 25 µM peptide solution, 25 µM DOX, and a mixed solution of 25 µM DOX and 25 µM peptide. And the cell viability of the mentioned HepG2 cells is followed after incubating for 1 hour and 6 hours."}, "HepG2 cells [2]": {"tested_on": "HepG2 cells", "assay": "DOX fluorescence intensity in HepG2 cytoplasm (intracellular translocation)", "assay_type": "cell-based", "settings": "incubating time from 1 hour to 6 hours; FIG. 1B", "method": "Besides, in order to ensure whether the cell-penetrating peptide is helpful to the translocation of DOX, after incubating for 1 to 6 hours, the DOX fluorescence intensity of in HepG2 tumor cell cytoplasm is measured and shown as FIG. 1B.\n(§1) In this example, HepG2 cells are individually incubated in DOX, DOX and IL-R57F89 mixed solution, and IL-R57F89-DOX for 1 hour, and measured the fluorescence intensity as FIG. 3."}, "HepG2 cell": {"tested_on": "HepG2 cell", "assay": "Cytotoxicity test on HepG2 cells, 24 hours", "assay_type": "cell-based", "settings": "acted on HepG2 cell for 24 hour; FIG. 10", "method": "as §1\nDOX and PEG5K-GPLGI-P17-DOX are processed cytotoxicity test."}, "MMP-2": {"target": "T1, MMP-2 (Homo sapiens, UniProt P08253)", "T1 sequence (P08253 110-660)": "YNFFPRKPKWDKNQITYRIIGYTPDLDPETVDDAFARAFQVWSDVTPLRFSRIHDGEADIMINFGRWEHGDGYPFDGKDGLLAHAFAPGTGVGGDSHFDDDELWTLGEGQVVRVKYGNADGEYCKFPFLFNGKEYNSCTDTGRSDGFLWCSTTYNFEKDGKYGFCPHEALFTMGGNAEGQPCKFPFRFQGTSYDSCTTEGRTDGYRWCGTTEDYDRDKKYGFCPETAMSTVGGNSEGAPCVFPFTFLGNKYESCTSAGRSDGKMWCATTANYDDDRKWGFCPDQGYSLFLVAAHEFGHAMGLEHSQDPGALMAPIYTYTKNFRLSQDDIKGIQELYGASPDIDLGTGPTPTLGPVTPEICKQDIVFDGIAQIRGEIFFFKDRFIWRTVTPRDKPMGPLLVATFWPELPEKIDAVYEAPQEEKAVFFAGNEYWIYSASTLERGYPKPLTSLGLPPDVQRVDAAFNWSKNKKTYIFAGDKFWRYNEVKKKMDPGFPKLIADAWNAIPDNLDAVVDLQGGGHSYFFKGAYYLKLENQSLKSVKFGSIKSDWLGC", "assay": "Digestion of recognizable sequence by MMP-2, followed by RPC / RP-HPLC", "assay_type": "biochemical", "method": "In the experiment of employing MMP-2 to cut/digest recognizable sequence, after individually adding tryptophan (abbreviated symbol as “W”) at the C-terminus and the N-terminus of the recognizable sequence, the digestion of the recognizable sequence by MMP-2 can be followed by the character absorption wave length at 280 nm.\nFIG. 4A to FIG. 4C respectively presents the reversed 1phase chromatography (RPC) analysis of 100 µM P1, P2, and P4 in Table 1 digested by 1 g/mL MMP-2. The gradient elution is 0-100% ACN, 50 min. […] Another recognizable sequence P4 with the same length as P3 and different amino acid fragments is designed.\nThe ILPW fragment from P4 digestion and the first four amino acid fragment of IL-R57F89 are the same. There are two MMP-2 cut-able sequences, GPLSI-P17 and GPLGI-P17, designed with the sequence individually as GPLS-ILPWRWRFFPWRR (SEQ ID NO: 11) and GPLG-ILPWRWRFFPWRR (SEQ ID NO: 10). The RP-HPLC analysis of GPLSI-P17 and GPLGI-P17 digested by MMP-2 are shown as FIG. 5A and FIG. 5B. It should be noticed that we ensure the peak of IL-R57F89 before the digestion of GPLSI-P17 and GPLGI-P17. […] Therefore, GPLSI-P17 and GPLGI-P17 can be employed as the recognizable sequence of this application.\nIncluding providing protection to recognizable sequence-CPP, proper PEG length will not impact the anchoring of the target cell to the recognizable sequence. Therefore, we try to finger out the effect of the PEG length to the following anchoring. PEG5K-GPLSI-P17 and PEG5K-GPLGI-P17 are individually dissolved in pH 7.4 HEPES buffer. MMP-2 is added into the above solutions and the final concentration is about 1 g/mL. The solutions are independently reacted at 37° C. for 24 hours. The reaction results are analyzed by RPC and shown as FIG. 8A and FIG. 8B."}, "trypsin": {"tested_on": "trypsin", "assay": "Protease stability test: trypsin digestion followed by RPC-UV280", "assay_type": "in vitro ADME", "description": "It can be expected that drug carrier in vivo circulation will face to many bio-enzymes, wherein those bio-enzymes will cut the drug carrier. Before designing proper protection to those bio-enzymes, we hope to finger out the cutting result of the recognizable sequence-CPP (cell-penetrating peptide) by bio-enzymes. In this example, trypsin is employed as the bio-enzyme. Trypsin is a protease with selectivity, especially for cutting the carboxyl side of arginine (R) or lysine (K) of protein or peptide. In this example, when CPP is IL-R57F89, there are four arginine fragments in CPP being able to be cut by trypsin. Those four arginine fragments are R5, R7, R12, and R13.\nFIG. 6A and FIG. 6B are respectively the RPC-UV280 spectra of IL-R57F89 and GPLSI-P17 digested by 0.1 g/mL trypsin. The gradient elution is 20-70% ACN, 5-30 min. In the spectra, there are sampling analysis results of 5, 10, 20, 30, 60, 120, and 240 min from top to bottom. […] According to this example, it can be noticed that it has to design a proper structure for keeping the recognizable sequence-CPP of drug carrier from cut by bio-enzyme(s) before the drug carrier achieving the target cell.\nSubsequently, it is important to find out proper PEG length so that the PEG can provide protection to the recognizable sequence-CPP and the PEG will not impact the anchoring of the target cell to the recognizable sequence. FIG. 7B presents the trypsin digestion results of IL-R57F89, GPLSI-P17, PEG1K-GPLSI-P17, PEG2K-GPLSI-P17, PEG5K-GPLSI-P17, and PEG5K-GPLGI-P17. […] PEG1K-GPLSI-P17 is digested about 80% after 2 hours. After digesting for 4 hours, PEG2K-GPLSI-P17 and PEGSK-GPLSI-P17 are individually digested about 50% and 45%. It can be ensured that the PEG with proper length can efficiently keep the recognizable sequence-CPP from digested by bio-enzyme. And, when adjusting the PEG length with the length of the recognizable sequence-CPP, the protection of the PEG to the recognizable sequence-CPP can be optimized. For example, to those general recognizable sequence-CPP now, the proper length of PEG is about 1000-25000 Da."}, "[3]": {"settings": "after 24 hours, FIG. 4C, 5A, 5B"}, "[4]": {"settings": "0.1 g/mL trypsin, after 2 hours, FIG. 6A, 6B"}, "[5]": {"settings": "100 µM peptide, 1 g/mL MMP-2, after digesting for 2 hours, FIG. 4A, 4B"}}, "note": "Ends that are not written are not given here."}
{"compound": "COc1cccc2c1C(=O)c1c(O)c3c(c(O)c1C2=O)C[C@@](O)(C(=O)CO)C[C@@H]3O[C@H]1C[C@H](N)[C@H](O)[C@H](C)O1", "note": "[DOX, doxorubicin]", "values": [{"measurement": "cytotoxicity to HepG2 cell (cell viability)", "setting": "HepG2 cells [1]", "value": "do not present obvious cytotoxicity"}, {"measurement": "DOX fluorescence intensity in HepG2 tumor cell cytoplasm, change with incubating time", "setting": "HepG2 cells [2]", "value": "increased"}, {"measurement": "cell viability of HepG2", "setting": "HepG2 cell", "value": "efficiently decrease the cell viability"}]}
{"compound": "CC[C@H](C)[C@H](N)C(=O)N[C@@H](CC(C)C)C(=O)N1CCC[C@H]1C(=O)N[C@@H](Cc1c[nH]c2ccccc12)C(=O)N[C@@H](CCCCN)C(=O)N[C@@H](Cc1c[nH]c2ccccc12)C(=O)N1CCC[C@H]1C(=O)N[C@@H](Cc1c[nH]c2ccccc12)C(=O)N[C@@H](Cc1c[nH]c2ccccc12)C(=O)N1CCC[C@H]1C(=O)N[C@@H](Cc1c[nH]c2ccccc12)C(=O)N[C@@H](CCCNC(=N)N)C(=O)N[C@@H](CCCNC(=N)N)C(=O)O", "note": "[IL, Indolicidin]", "values": [{"measurement": "cytotoxicity to HepG2 cell (cell viability)", "setting": "HepG2 cells [1]", "value": "do not present obvious cytotoxicity"}]}
{"compound": "GPLGI-P17: recognizable sequence-CPP GPLG-ILPWRWRFFPWRR (SEQ ID NO: 10) (GPLGILPWRWRFFPWRR; the sequence is synthesized)", "values": [{"measurement": "digestion by MMP-2", "setting": "MMP-2; [3]", "value": "totally digested"}]}
{"compound": "GPLSILPWRWRFFPWRR [GPLSI-P17]", "values": [{"measurement": "digestion by trypsin", "setting": "trypsin; [4]", "value": "almost digested completely"}, {"measurement": "digestion by trypsin", "setting": "trypsin; after about 1 hour, FIG. 7B", "value": "almost digested completely"}]}
{"compound": "ILPWRWRFFPWRR [IL-R57F89]", "values": [{"measurement": "cytotoxicity to HepG2 cell (cell viability)", "setting": "HepG2 cells [1]", "value": "do not present obvious cytotoxicity"}, {"measurement": "digestion by trypsin", "setting": "trypsin; [4]", "value": "almost digested completely"}, {"measurement": "digestion by trypsin", "setting": "trypsin; after about 1 hour, FIG. 7B", "value": "almost digested completely"}]}
{"compound": "P1: MMP-2 cut-able sequence WGPLGIAGQW", "values": [{"measurement": "digestion by MMP-2", "setting": "MMP-2; [5]", "value": "still can be digested by MMP-2"}]}
{"compound": "P2: MMP-2 cut-able sequence WGPLGIAGW", "values": [{"measurement": "digestion by MMP-2", "setting": "MMP-2; [5]", "value": "totally digested"}]}
{"compound": "P4: MMP-2 cut-able sequence WGPLGILPW", "values": [{"measurement": "digestion by MMP-2", "setting": "MMP-2; [3]", "value": "totally digested"}]}
